Results reported in patent US7569562B2, “N-substituted heterocyclic sulfonamides” (Elan Pharmaceuticals, Inc., priority 2005, dated 2009).

These compounds were tested on gamma secretase cleavage of NotchΔE (ZEDN1) (assay: Notch Signaling Assay for Selective Inhibitors of Gamma Secretase (reporter gene based)). Conditions: Rattus norvegicus; assay not given; it follows the Notch signaling (4xwtCBF1 Luciferase reporter) method.
Format: cell-based
Excerpt: Notch Signaling Assay for Selective Inhibitors of Gamma Secretase.
Due to the importance of Notch signaling in cell fate determination, and tissue differentiation during both development and in the adult, inhibition of Notch signaling by gamma secretase inhibitors is postulated to be a limiting factor in their therapeutic utility. In order to identify selective gamma secretase inhibitors, we have employed a reporter gene based Notch signaling assay using a constitutively active rat Notch1 construct (ZEDN1) provided by Dr Gerry Weinmaster, who is at the University of California at Los Angeles (UCLA) as described in Shawber, C., D. Nofziger, J. J. Hsieh, C. Lindsell, O. Bogler, D. Hayward and G. Weinmaster (1996). “Notch signaling inhibits muscle cell differentiation through a CBF1-independent pathway.” Development 122(12): 3765-73 in combination with the CBF1 repressible Luciferase reporter gene 4xwtCBF1Luc (Hsieh, J. J., T. Henkel, P. Salmon, E. Robey, M. G. Peterson and S. D. Hayward (1996). “Truncated mammalian Notch1 activates CBF1/RBPJk-repressed genes by a mechanism resembling that of Epstein-Barr virus EBNA2.” Mol Cell Biol 16(3): 952-9).
When 4xwtCBF1 Luciferase is co-transfected with NotchΔE (ZEDN1), γ-secretase cleavage of NotchΔE releases the Notch intracellular domain (NICD), which translocates to the nucleus and de-represses CBF1 mediated transcriptional repression, leading to transcription of the Luciferase reporter gene. Luciferase activity is easily assayed in cell extracts using commercially available kits. The activity of the reporter gene is directly correlated with gamma secretase cleavage of NotchΔE, and as such, a reduction in Luciferase activity provides a convenient measure of inhibition of gamma secretase cleavage of NotchΔE. A comparison of the IC50 values of compounds for inhibition of Notch signaling versus inhibition of β-amyloid production in 293sw cells is employed to guide in the selection of compounds that have the desired property of potent inhibition of β-amyloid synthesis with minimal inhibition of Notch Signaling.

Row | Compound | IC50
1 | CC(=Cc1ccccc1)CN([C@@H]1CCCCNC1=O)S(=O)(=O)c1ccc(Cl)nc1 [6-Chloro-pyridine-3-sulfonic acid (2-methyl-3-phenyl-allyl)-[(R)-2-oxo-azepan-3-yl]-amide] | 1 to 100 nM
2 | O=C1NCCCC[C@H]1N(CC=Cc1cccnc1)S(=O)(=O)c1ccc(Cl)nc1 [6-Chloro-pyridine-3-sulfonic acid [(R)-2-oxo-azepan-3-yl]-(3-pyridin-3-yl-allyl)-amide] | 1 to 100 nM
3 | O=C1NCCCC[C@H]1N(CC1CCCCO1)S(=O)(=O)c1ccc(Cl)nc1 (stereo partly drawn) [6-Chloro-pyridine-3-sulfonic acid [(R)-2-oxo-azepan-3-yl]-(tetrahydro-pyran-2-ylmethyl)-amide] | > 1000 nM
4 | O=C1NCCCC[C@H]1N(Cc1ccc(Br)cc1)S(=O)(=O)c1cccnc1 [Pyridine-3-sulfonic acid (4-bromo-benzyl)-[(R)-2-oxo-azepan-3-yl]-amide] | 100 to 1000 nM

Now from value to compound:

Row | IC50 | Compound
5 | 100 to 1000 nM | Cn1nnc2cc(CN([C@@H]3CCCCNC3=O)S(=O)(=O)c3ccc(Cl)s3)ccc21 [5-Chloro-thiophene-2-sulfonic acid (1-methyl-1H-benzotriazol-5-ylmethyl)-[(R)-2-oxo-azepan-3-yl]-amide]
6 | 100 to 1000 nM | O=C1NCCCC[C@H]1N(Cc1ccc(Br)cc1)S(=O)(=O)c1ccc(Cl)s1 [5-Chloro-thiophene-2-sulfonic acid (4-bromo-benzyl)-[(R)-2-oxo-azepan-3-yl]-amide]
7 | > 1000 nM | Cc1ccc(S(=O)(=O)N(Cc2ccc(Br)cc2)[C@@H]2CCCCNC2=O)s1 [5-Methyl-thiophene-2-sulfonic acid (4-bromo-benzyl)-[(R)-2-oxo-azepan-3-yl]-amide]
8 | 1 to 100 nM | Cn1nnc2cc(CN([C@@H]3CCCCNC3=O)S(=O)(=O)c3ccc(Cl)nc3)ccc21 [6-Chloro-pyridine-3-sulfonic acid (1-methyl-1H-benzotriazol-5-ylmethyl)-[(R)-2-oxo-azepan-3-yl]-amide]
